Test results as given in patent publication EP2951180B1, “2,6,7,8 SUBSTITUTED PURINES AS HDM2 INHIBITORS” (Merck Sharp & Dohme Corp., priority 2013, dated 2014).

Each compound was assayed against T1, HDM2 (Homo sapiens, UniProt Q00987) (assay: HDM2 FRET assay (inhibition of binding of FITC labeled p53-pocket peptide to HDM2)). Conditions: 0.5 nM HDM2 (residues 17 to 125), 3nM peptide, two hour incubation at room temperature; read-out: FRET IC50.
T1 construct: Thioredoxin (N); made in house; host or cells: E. coli strain BL21(DE3)Rosetta
T1 sequence (Q00987 17-125): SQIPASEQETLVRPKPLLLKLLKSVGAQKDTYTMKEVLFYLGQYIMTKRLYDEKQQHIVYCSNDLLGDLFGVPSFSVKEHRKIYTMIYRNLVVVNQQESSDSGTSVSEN
How it was run: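 Compounds were tested in 10-point serial dilution against 0.5 nM recombinant HDM2 binding 3 nM fluorescein-labeled p53-pocket peptide. Detection used 0.25 nM terbium cryptate anti-6xHis antibody in PBS buffer containing 0.01% BSA and 0.01% Tween-20.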
`CC(C)c1ccnc(-c2nc3nc(CO)nc(N[C@H](C)C4CCC4)c3n2Cc2ccc(C(F)(F)F)cc2)c1` [Example 12.2, (6-{[(1R)-1-cyclobutylethyl]amino}-8-[4-(propan-2-yl)pyridin-2-yl]-7-[4-(trifluoromethyl)benzyl]-7H-purin-2-yl)methanol] gave an IC50 of 597 nM.
Compound `C[C@H]1CC[C@H](Cn2c(C3CC3)nc3nc(-c4n[nH]c(=O)o4)nc(-c4cccc(Cl)c4)c32)CC1` [Example 24.1, 5-{6-(3-chlorophenyl)-8-cyclopropyl-7-[(trans-4-methylcyclohexyl)methyl]-7H-purin-2-yl}-1,3,4-oxadiazol-2(3H)-one] has an IC50 of 62.8 nM.
Compound `C[C@H]1CC[C@H](Cn2c(N3CCOC[C@H]3c3ccccc3F)nc3nc(-c4n[nH]c(=O)o4)nc(-c4cncc(Cl)c4)c32)CC1` [Example 16.95, 5-{6-(5-chloropyridin-3-yl)-8-[(3R)-3-(2-fluorophenyl)morpholin-4-yl]-7-[(trans-4-methylcyclohexyl)methyl]-7H-purin-2-yl}-1,3,4-oxadiazol-2(3H)-one] has an IC50 of 0.494 nM.
Compound `CC(C)c1ccnc(-c2nc3nc(C(C)(C)O)nc(N[C@H](C)C4CCC4)c3n2C[C@H]2CC[C@H](C)CC2)c1` [Example 12.7, 2-(6-{[(1R)-1-cyclobutylethyl]amino}-7-[(trans-4-methylcyclohexyl)methyl]-8-[4-(propan-2-yl)pyridin-2-yl]-7H-purin-2-yl)propan-2-ol] has an IC50 of 731 nM.
`C[C@H]1CC[C@H](Cn2c(N3CCOC[C@H]3c3ccccc3)nc3nc(-c4n[nH]c(=O)o4)nc(-c4cc(Cl)cnc4O)c32)CC1` [Example 16.163, 5-{6-(5-chloro-2-hydroxypyridin-3-yl)-7-[(trans-4-methylcyclohexyl)methyl]-8-[(3R)-3-phenylmorpholin-4-yl]-7H-purin-2-yl} -1,3,4-oxadiazol-2(3H)-one] gave an IC50 of 1.23 nM.
Compound `Cc1cccc(-c2nc(-c3noc(=O)[nH]3)nc3nc(N4CCOC[C@@H]4C)n(C[C@H]4CC[C@H](C)CC4)c23)c1` [Example 16.34, 3-{7-[(trans-4-methylcyclohexyl)methyl]-8-[(3S)-3-methylmorpholin-4-yl]-6-(3-methylphenyl)-7H-purin-2-yl}-1,2,4-oxadiazol-5(4H)-one] has an IC50 of 503 nM.
In the case of `CCS(=O)(=O)c1nc(N[C@H](C)C2CCC2)c2c(n1)nc(N1CCOC[C@H]1c1ccccc1)n2C[C@H]1CC[C@H](C)CC1` [Example 14.5, N-[(1R)-1-cyclobutylethyl]-2-(ethylsulfonyl)-7-[(trans-4-methylcyclohexyl)methyl]-8-[(3R)-3-phenylmorpholin-4-yl]-7H-purin-6-amine], the IC50 is reported as 20.1 nM.
Work on `C[C@@H]1COCCN1c1nc2nc(-c3n[nH]c(=O)o3)nc(-c3cccc(Cl)c3)c2n1C[C@H]1CC[C@H](C)CC1` [Example 16.7, 5-(6-(3-chlorophenyl)-7-(((trans)-4-methylcyclohexyl)methyl)-8-((R)-3-methylmorpholino)-7H-purin-2-yl)-1,3,4-oxadiazol-2(3H)-one] yielded an IC50 of 14.5 nM.
Work on `C[C@H]1CC[C@H](Cn2c(N3CCOCC34CC4)nc3nc(-c4noc(=O)[nH]4)nc(-c4cccc(Cl)c4)c32)CC1` [Example 16.79, 3-[6-(3-chlorophenyl)-7-[(trans-4-methylcyclohexyl)methyl]-8-(7-oxa-4-azaspiro[2.5]oct-4-yl)-7H-purin-2-yl]-1,2,4-oxadiazol-5(4H)-one] yielded an IC50 of 21.6 nM.

Same assay, conditions: Table 6; read-out: FRET IC50
In the case of `CCN(C)c1nc(C(=O)O)nc2nc(-c3cccc(C)c3)n(Cc3ccc(C(F)(F)F)cc3)c12` [Example 6.59, 6-[ethyl(methyl)amino]-8-(3-methylphenyl)-7-[4-(trifluoromethyl)benzyl]-7H-purine-2-carboxylic acid], the IC50 is reported as 1000 nM.
`COc1ccc(C)cc1-c1nc2nc(C(=O)O)nc(N[C@H](C)C3CC3(C)C)c2n1Cc1ccc(C(F)(F)F)cc1` (stereo partly drawn) [Example 6.56, 6-{[(1R)-1-(2,2-dimethylcyclopropyl)ethyl]amino}-8-(2-methoxy-5-methylphenyl)-7-[4-(trifluoromethyl)benzyl]-7H-purine-2-carboxylic acid] was tested, and the IC50 was 1410 nM.

Same assay, conditions: Table 9; read-out: FRET IC50
Compound `C[C@@H](Nc1nc(-c2noc(=O)[nH]2)nc2nc(N3CCCCC3c3ccccc3)n(Cc3ccc(C(F)(F)F)cc3)c12)C1CCC1` (stereo partly drawn) [Example 9.67, 3-(6-{[(1R)-1-cyclobutylethyl]amino}-8-(2-phenylpiperidin-1-yl)-7-[4-(trifluoromethyl)benzyl]-7H-purin-2-yl)-1,2,4-oxadiazol-5(4H)-one] has an IC50 of 12.7 nM.
Work on `Cc1cc(C)n(-c2nc3nc(C(=O)O)nc(N[C@H](C)C4CCC4)c3n2Cc2ccc(C(F)(F)F)cc2)n1` [Example 9.59, 6-{[(1R)-1-cyclobutylethyl]amino}-8-(3,5-dimethyl-1H-pyrazol-1-yl)-7-[4-(trifluoromethyl)benzyl]-7H-purine-2-carboxylic acid] yielded an IC50 of 292 nM.

Same assay, conditions: Table 10; read-out: FRET IC50
For `CC(c1nc2nc(C(=O)O)nc(N[C@H](C)C3CCC3)c2n1Cc1ccc(C(F)(F)F)cc1)N(C)C1CCCCC1` (stereo partly drawn) [Example 10.11, 6-(((R)-1-cyclobutylethyl)amino)-8-(1-(cyclohexyl(methyl)amino)ethyl)-7-(4-(trifluoromethyl)benzyl)-7H-purine-2-carboxylic acid], the IC50 was 22.1 nM.
In the case of `CC(c1nc2nc(C(=O)O)nc(N[C@H](C)C3CCC3)c2n1Cc1ccc(C(F)(F)F)cc1)N(C)c1ccccc1` (stereo partly drawn) [Example 10.10, 6-(((R)-1-cyclobutylethyl)amino)-8-(1-(methyl(phenyl)amino)ethyl)-7-(4-(trifluoromethyl)benzyl)-7H-purine-2-carboxylic acid], the IC50 is reported as 68.8 nM.

Same assay, conditions: Table 11; read-out: FRET IC50
`C[C@@H](Nc1nc(-c2noc(=O)[nH]2)nc2nc(N3CCOC[C@H]3c3ccccc3)n(C[C@H]3CC[C@H](C)CC3)c12)C1CCC1` [Example 11.11, 3-(6-{[(1R)-1-cyclobutylethyl]amino}-7-[(trans-4-methylcyclohexyl)methyl]-8-[(3R)-3-phenylmorpholin-4-yl]-7H-purin-2-yl)-1,2,4-oxadiazol-5(4H)-one] showed an IC50 of 0.626 nM.
`C[C@H]1CC[C@H](Cn2c(N3CCOC[C@H]3c3ccccc3)nc3nc(-c4noc(=O)[nH]4)nc(N4CCCC4C4CCC4)c32)CC1` (stereo partly drawn) [Example 11.62, 3-{6-(2-cyclobutylpyrrolidin-1-yl)-7-[(trans-4-methylcyclohexyl)methyl]-8-[(3R)-3-phenylmorpholin-4-yl]-7H -purin-2-yl}-1,2,4-oxadiazol-5(4H)-one] was tested, and the IC50 was 7.84 nM.
With `C[C@@H](Nc1nc(-c2noc(=O)[nH]2)nc2nc(N3CCCC3C(C)(C)C)n(C[C@H]3CC[C@H](C)CC3)c12)C1CCC1` (stereo partly drawn) [Example 11.36, 3-{8-(2-tert-butylpyrrolidin-1-yl)-6-{[(1R)-1-cyclobutylethyl]amino}-7-[(trans-4-methylcyclohexyl)methyl]-7H-purin-2-yl}-1,2,4-oxadiazol-5(2H)-one] the IC50 was 3.93 nM.
In the case of `COCCN(C)c1nc2nc(-c3noc(=O)[nH]3)nc(N[C@H](C)C3CCC3)c2n1C[C@H]1CC[C@H](C)CC1` [Example 11.116, 3-(6-{[(1R)-1-cyclobutylethyl]amino}-8-[(2-methoxyethyl)(methyl)amino]-7-[(trans-4-methylcyclohexyl)methyl]-7H-purin-2-yl)-1,2,4-oxadiazol-5(2H)-one], the IC50 is reported as 21 nM.
`C[C@@H](Nc1nc(-c2noc(=O)[nH]2)nc2nc(N3CCOC4CCCC43)n(C[C@H]3CC[C@H](C)CC3)c12)C1CCC1` (single isomer, unassigned) [Example 11.148] was tested, and the IC50 was 23.8 nM.
With `C[C@@H](Nc1nc(-c2noc(=O)[nH]2)nc2nc(N3CCOCC(F)(F)C3)n(C[C@H]3CC[C@H](C)CC3)c12)C1CCC1` [Example 11.104, 3-(6-{[(1R)-1-cyclobutylethyl]amino}-8-(6,6-difluoro-1,4-oxazepan-4-yl)-7-[(trans-4-methylcyclohexyl)methyl]-7H-purin-2-yl)-1,2,4-oxadiazol-5(2H)-one] the IC50 was 9.24 nM.
`Cc1csc(CN(C)c2nc3nc(-c4noc(=O)[nH]4)nc(N[C@H](C)C4CCC4)c3n2C[C@H]2CC[C@H](C)CC2)n1` [Example 11.76, 3-(6-{[(1R)-1-cyclobutylethyl]amino}-7-[(trans-4-methylcyclohexyl)methyl]-8-{methyl[(4-methyl-1,3-thiazol-2-yl)methyl]amino}-7H-purin-2-yl)-1,2,4-oxadiazol-5(2H)-one] gave an IC50 of 8.19 nM.

Same assay, conditions: Table 18; read-out: FRET IC50
`CCC1CC=C(Cn2c(-c3cc(C(C)C)ccn3)nc3nc(C(=O)O)nc(N[C@H](C)C4CCC4)c32)CC1` (stereo partly drawn) [Example 18.23, 6-{[(1R)-1-cyclobutylethyl]amino}-7-[(4-ethylcyclohex-1-en-1-yl)methyl]-8-[4-(1-methylethyl)pyridin-2-yl]-7H-purine-2-carboxylic acid] showed an IC50 of 26.4 nM.
`CC([C@H]1CC[C@H](C)CC1)n1c(N2CCOC[C@H]2c2ccccc2)nc2nc(-c3n[nH]c(=O)o3)nc(-c3cncc(Cl)c3)c21` (single isomer, unassigned) [Example 18.14] gave an IC50 of 0.62 nM.

Same assay, conditions: Table 21; read-out: FRET IC50
Compound `CC(c1nc2nc(-c3noc(=O)[nH]3)nc(N[C@H](C)C3CCC3)c2n1C[C@H]1CC[C@H](C)CC1)C1CCOCC1` (stereo partly drawn) [Example 21.21, 3-(6-{[(1R)-1-cyclobutylethyl]amino}-7-[(trans-4-methylcyclohexyl)methyl]-8-[1-(tetrahydro-2H-pyran-4-yl)ethyl]-7H-purin-2-yl)-1,2,4-oxadiazol-5(4H)-one] has an IC50 of 7.17 nM.

Same assay, conditions: Table 22; read-out: FRET IC50
With `C[C@@H](Nc1nc(-c2noc(=O)[nH]2)nc2nc(C3(F)CCC3)n(C[C@H]3CC[C@H](C)CC3)c12)C1CCC1` [Example 22.68, 3-(6-{[(1R)-1-cyclobutylethyl]amino}-8-(1-fluorocyclobutyl)-7-[(trans-4-methylcyclohexyl)methyl] -7H-purin-2-yl)-1,2,4-oxadiazol-5(4H)-one] the IC50 was 16.9 nM.
`C[C@@H](Nc1nc(-c2noc(=O)[nH]2)nc2nc(C(C)(F)c3ccccc3F)n(C[C@H]3CC[C@H](C)CC3)c12)C1CCC1` (single isomer, unassigned) [Example 22.65] was tested, and the IC50 was 22.6 nM.
